Results as given in ChEMBL document CHEMBL1143411, “Concentration-effect relationship of ceftazidime explains why the time above the MIC is 40 percent for a static effect in vivo” (Antimicrob Agents Chemother, 2007).
≈ marks a conversion by molar mass, not a printed value.

Tests used:
Pseudomonas aeruginosa [1] = assay: Antibacterial activity against Pseudomonas aeruginosa ATCC 27853 by microdilution method; format: functional, organism-based
Pseudomonas aeruginosa [2] = assay: Antibacterial activity against Pseudomonas aeruginosa ATCC 27853 assessed as bacterial growth rate by time-kill study; format: functional
Pseudomonas aeruginosa [3] = assay: Antibacterial activity against Pseudomonas aeruginosa ATCC 27853 assessed as maximum bacterial kill rate by time-kill study; format: functional
[4] = Volume of distribution in mouse; format: ADME, organism-based; conditions: in vivo, read-out: Vc
[5] = Elimination rate constant in mouse; format: ADME, organism-based; conditions: in vivo
[6] = Volume of distribution in human; format: ADME, organism-based; conditions: in vivo, read-out: Vc
[7] = Elimination rate constant in human; format: ADME, organism-based; conditions: in vivo
Homo sapiens [8] = assay: %fT>MIC in human at 20.2 mg/kg administered every 4 hrs; format: ADME, organism-based; parameters: dose 20.2 mg/kg; conditions: in vivo
Mus musculus [9] = assay: %fT>MIC in mouse at 2.12 mg/kg administered every 2 hrs; format: ADME, organism-based; parameters: dose 2.12 mg/kg; conditions: in vivo
Mus musculus [10] = assay: %fT>MIC in mouse at 4.60 mg/kg administered every 3 hrs; format: ADME, organism-based; parameters: dose 4.6 mg/kg; conditions: in vivo, 4.6 mg/kg
Mus musculus [11] = assay: %fT>MIC in mouse at 9.29 mg/kg administered every 4 hrs; format: ADME, organism-based; parameters: dose 9.29 mg/kg; conditions: in vivo
Mus musculus [12] = assay: %fT>MIC in mouse at 35.6 mg/kg administered every 6 hrs; format: ADME, organism-based; parameters: dose 35.6 mg/kg; conditions: in vivo
Mus musculus [13] = assay: %fT>MIC in mouse at 129.7 mg/kg administered every 8 hrs; format: ADME, organism-based; parameters: dose 129.7 mg/kg; conditions: in vivo
Homo sapiens [14] = assay: %fT>MIC in human at 38.9 mg/kg administered every 6 hrs; format: ADME, organism-based; parameters: dose 38.9 mg/kg; conditions: in vivo
Homo sapiens [15] = assay: %fT>MIC in human at 59.8 mg/kg administered every 8 hrs; format: ADME, organism-based; parameters: dose 59.8 mg/kg; conditions: in vivo
Homo sapiens [16] = assay: %fT>MIC in human at 121 mg/kg administered every 12 hrs; format: ADME, organism-based; parameters: dose 121 mg/kg; conditions: in vivo

For `CC(C)(O/N=C(\C(=O)N[C@@H]1C(=O)N2C(C(=O)[O-])=C(C[n+]3ccccc3)CS[C@H]12)c1csc(N)n1)C(=O)O` [CEFTAZIDIME], which EC50 (Pseudomonas aeruginosa [1]) is on record?
The EC50 was 1.22 µg/mL (≈ 2.23 µM).

What about the Activity (Pseudomonas aeruginosa [2]) of the same compound?
The Activity was -1.41 h⁻¹.

What about the Activity (Pseudomonas aeruginosa [3]) of the same compound?
The Activity was 4.15 h⁻¹.

And the Vd [4]?
The Vd was 0.5 L/kg.

And the k el [5]?
Its k el is 0.000544 s⁻¹.

What about the Vd [6] of the same compound?
Its Vd is 1.4 L.

What about the k el [7] of the same compound?
Its k el is 0.000128 s⁻¹.

And the “fT>MIC” value (Homo sapiens [8])?
Its value is 23.7%.

And the “fT>MIC” value (Mus musculus [9])?
The value was 37.3%.

And the “fT>MIC” value (Mus musculus [10])?
Its value is 38.1%.

What about the “fT>MIC” value (Mus musculus [11]) of the same compound?
Its value is 37.6%.

And the “fT>MIC” value (Mus musculus [12])?
Its value is 36.5%.

What about the “fT>MIC” value (Mus musculus [13]) of the same compound?
Its value is 35.7%.

What about the “fT>MIC” value (Homo sapiens [14]) of the same compound?
The value was 36.3%.

What about the “fT>MIC” value (Homo sapiens [15]) of the same compound?
The value was 37.9%.

What about the “fT>MIC” value (Homo sapiens [16]) of the same compound?
Its value is 37.7%.
